Experimental data taken from paper PMC4882497 (British Journal of Pharmacology, 2016).

Columns and labels:
hY5 = molecular target: T1, hY5 (Homo sapiens, UniProt Q15761); test: Inositol phosphate accumulation, COS-7 cells expressing hY5 and chimeric Gi/q protein; format: cell-based; details: agonist, inositol phosphate turnover, COS7 cells; pEC50 ± SEM, n ≥ 2
T1 construct: expressed in transfected cells
T1 sequence (Q15761 1-445): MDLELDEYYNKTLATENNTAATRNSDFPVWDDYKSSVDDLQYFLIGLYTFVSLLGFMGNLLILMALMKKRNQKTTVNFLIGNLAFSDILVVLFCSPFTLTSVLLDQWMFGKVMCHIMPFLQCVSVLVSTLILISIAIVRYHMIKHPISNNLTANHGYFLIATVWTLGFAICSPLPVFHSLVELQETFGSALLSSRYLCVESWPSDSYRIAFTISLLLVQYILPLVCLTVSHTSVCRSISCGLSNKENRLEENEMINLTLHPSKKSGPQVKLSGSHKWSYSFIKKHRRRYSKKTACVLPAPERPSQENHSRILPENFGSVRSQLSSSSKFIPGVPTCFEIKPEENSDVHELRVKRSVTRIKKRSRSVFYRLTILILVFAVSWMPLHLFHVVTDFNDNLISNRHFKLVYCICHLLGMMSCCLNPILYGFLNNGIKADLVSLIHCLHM
Description: (§1) Agonist activity at Y receptors was assessed by measuring inositol phosphate accumulation in COS‐7 cells, as described previously (Hofmann et al., 2013). […] Stably transfected COS‐7‐hYR‐GαΔ6qi4myr cells were cultivated in DMEM with 4.5 g·L^−1 glucose and L‐glutamine supplemented with 10% (v/v) heat‐inactivated FCS, 100 units mL^−1 penicillin, 100 μg mL^−1 streptomycin, 1.5 mg mL^−1 G418‐sulfate and 146 μg mL^−1 hygromycin B in a humidified atmosphere at 37°C and 5% CO2. COS 7 cells were a gift from Prof. Dr. Torsten Schöneberg (Leipzig University). Stable cell lines were prepared as described in Mäde et al., 2014. Cells were grown in 48‐well plates (90 000 cells in 500 μL per well) for 24 h. […] Cells were lysed applying 0.1 M sodium hydroxide for 5 min at room temperature followed by neutralization with 0.2 M formic acid. […] Eluates were diluted with scintillation cocktail Ultima Gold (Perkin Elmer) and measured by a scintillation counter (Tri‐Carb 2910 TR from PerkinElmer). […] For each compound, global mean EC50 and pEC50 ± SEM (n ≥ 2) were calculated from the entire normalized concentration‐response curves by nonlinear regression using GraphPad Prism 5.0. […]
(§2) Activity at the human receptors, hY1, hY2, hY4 and hY5, was measured by accumulation of IP3, after channeling cAMP inhibition to phospholipase C activity, in COS7 cells.

hY4 = molecular target: T2, hY4 (Homo sapiens, UniProt P50391); test: Inositol phosphate accumulation, COS-7 cells expressing hY4 and chimeric Gi/q protein; format: cell-based; details: agonist, inositol phosphate turnover, COS7 cells; pEC50 ± SEM, n ≥ 2
T2 construct: expressed in transfected cells
T2 sequence (P50391 whole entry): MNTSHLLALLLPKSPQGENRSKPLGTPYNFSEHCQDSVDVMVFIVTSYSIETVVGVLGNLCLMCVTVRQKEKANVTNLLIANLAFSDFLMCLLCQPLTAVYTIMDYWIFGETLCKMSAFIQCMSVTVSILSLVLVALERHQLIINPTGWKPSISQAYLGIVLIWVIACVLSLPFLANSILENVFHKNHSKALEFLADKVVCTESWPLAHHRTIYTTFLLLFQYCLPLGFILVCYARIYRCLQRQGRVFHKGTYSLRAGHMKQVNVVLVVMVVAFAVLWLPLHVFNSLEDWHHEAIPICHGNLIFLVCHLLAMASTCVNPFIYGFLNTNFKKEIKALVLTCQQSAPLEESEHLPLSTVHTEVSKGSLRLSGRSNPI
Description: as §1, §2

hY2 = molecular target: T3, hY2 (Homo sapiens, UniProt P49146); test: Inositol phosphate accumulation, COS-7 cells expressing hY2 and chimeric Gi/q protein; format: cell-based; details: agonist, inositol phosphate turnover, COS7 cells, 1 h stimulation, duplicate, at least two experiments
T3 construct: expressed in transfected cells
T3 sequence (P49146 1-381): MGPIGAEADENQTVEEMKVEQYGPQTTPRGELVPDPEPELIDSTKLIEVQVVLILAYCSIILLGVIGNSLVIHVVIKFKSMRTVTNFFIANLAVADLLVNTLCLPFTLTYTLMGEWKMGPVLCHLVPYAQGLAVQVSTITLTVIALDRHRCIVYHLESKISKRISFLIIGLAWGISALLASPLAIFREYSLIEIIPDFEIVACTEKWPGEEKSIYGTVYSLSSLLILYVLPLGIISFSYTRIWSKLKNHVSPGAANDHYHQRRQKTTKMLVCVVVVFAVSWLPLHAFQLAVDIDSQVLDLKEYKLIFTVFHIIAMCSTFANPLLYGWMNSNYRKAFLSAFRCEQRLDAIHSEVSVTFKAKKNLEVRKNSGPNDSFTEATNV
Description: as §1, §2

hY1 = molecular target: T4, hY1 (Homo sapiens, UniProt P25929); test: Inositol phosphate accumulation, COS-7 cells expressing hY1 and chimeric Gi/q protein; format: cell-based; details: agonist, inositol phosphate turnover, COS7 cells, 1 h stimulation, duplicate, at least two experiments
T4 construct: expressed in transfected cells
T4 sequence (P25929 1-384): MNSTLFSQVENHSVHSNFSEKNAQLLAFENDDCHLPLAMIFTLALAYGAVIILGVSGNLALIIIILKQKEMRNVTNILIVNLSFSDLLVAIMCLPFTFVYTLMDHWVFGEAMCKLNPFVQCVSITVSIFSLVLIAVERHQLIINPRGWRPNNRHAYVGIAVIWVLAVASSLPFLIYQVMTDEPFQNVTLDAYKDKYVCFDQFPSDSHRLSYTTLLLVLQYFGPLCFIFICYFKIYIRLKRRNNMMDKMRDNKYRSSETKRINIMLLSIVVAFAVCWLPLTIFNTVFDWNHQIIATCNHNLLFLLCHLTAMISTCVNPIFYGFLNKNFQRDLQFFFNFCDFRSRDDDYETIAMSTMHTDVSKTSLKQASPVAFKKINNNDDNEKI
Description: as §1, §2

WT (C57Bl/6NCrl) mice = test: Cued fear extinction after peripheral injection, WT mice; format: in vivo, mouse
Description: (§3) Naïve WT (C57Bl/6NCrl) or Y4KO mice were used for fear conditioning experiments. Fear conditioning experiments were conducted during the light phase of the light/dark cycle in sound proof chambers (TSE Systems, Bad Homburg, Germany) by repetitive exposure of the mice to an auditory stimulus co‐terminating with a foot shock, as described in detail previously (Verma et al., 2012). Fear conditioning and context testing were performed in context A consisting of a transparent acrylic mouse conditioning chamber with a metal grid floor. The whole set‐up was enclosed by a sound attenuating chamber. Illumination was 80 lux, and chambers were cleaned with 70% ethanol. Fear recall as well as fear extinction and extinction recall was performed in a different context consisting of a dimly illuminated (10 lux) chamber with black, smooth walls and the floor cleaned with 1% acetic acid (context B).
(§4) On day 1 (context A), mice were subjected to a differential fear conditioning paradigm in which one auditory stimulus served as a CS because it was explicitly paired (CS+, 30 s white noise, 80 dB) with the US, whereas the second auditory stimulus was not paired (CS−, 30 s, 3.5 kHz, 80 dB). All animals received five CS− and five CS+ in an alternating order, starting with a CS+. The US co‐terminating with each CS+ consisted of a foot shock. […] On days 2 and 3, mice were tested for their context (context A for 15 min) and CS‐related fear memory (context B) respectively.
(§5) Fear conditioning was performed in WT (C57Bl6/NCrl) and Y4KO mice on day 1 (context A) as described in the previous paragraph. To avoid interference with postprandial released PP, mice were fasted overnight (16 h) before injection of the drug followed by fear extinction training. Water was freely available during the fasting period. Based on our previous results, a 16 h fasting period was required to reach our experimental aim (Verma et al., 2016). A control experiment was performed without food restriction (non‐fasting). [K^30(PEG2)]hPP2‐36 (1 mg·kg^−1) or saline was injected i.p. 60 min before behavioural testing, as indicated in the timeline of the respective experiments. For extinction experiments, mice were divided into two groups, receiving an i.p. injection of either the long‐acting Y4 receptor agonist [K^30(PEG2)]hPP2‐36 (1 mg·kg^−1) or saline in controls followed after 60 min by extinction training (extinction 1; 5 CS− and 25 CS+, context B). Mice were then tested on day 3 for extinction recall under drug‐free conditions by exposure to five CS+ (context B). To exclude any bias of group selection, another extinction session was performed on day 4 (extinction 2; 25 CS+, context B) followed by extinction recall on day 5 (five CS+; context B), both under drug‐free conditions. Spontaneous recovery (day 12) and renewal (day 13) were tested by exposing the mice to five CS+ in contexts B and A respectively.

Y4KO mice = test: Cued fear extinction after peripheral injection, Y4KO mice; format: in vivo, mouse; details: 1 mg/kg i.p. 60 min before extinction, fasted 16 h, vs saline, n = 10 per group
Description: as §3
On day 1 (context A), mice were subjected to a differential fear conditioning paradigm in which one auditory stimulus served as a CS because it was explicitly paired (CS+, 30 s white noise, 80 dB) with the US, whereas the second auditory stimulus was not paired (CS−, 30 s, 3.5 kHz, 80 dB). All animals received five CS− and five CS+ in an alternating order, starting with a CS+. The US co‐terminating with each CS+ consisted of a foot shock. […]

male WT mice = test: Motor activity over 24 h in a novel cage; format: in vivo, mouse; details: 1 mg/kg i.p., 24 h in novel cage, vs saline, n = 8 vs 7
Description: Male WT mice were injected i.p. with either the long‐acting Y4 receptor agonist [K^30(PEG2)]hPP2‐36 (1mg kg^−1) or saline. Activity measurements were performed for 24 h in a novel cage. Mice were single‐housed in standard cages with food and water ad libitum. Movements of the mice were detected by an infrared sensor throughout light and dark phase (TSE LabMaster InfraMot, Bad Homburg, Germany).
To exclude non‐specific effects of [K^30(PEG2)]hPP2‐36 on motor activity that may compromise freezing detection during extinction training, we first injected male WT mice i.p. with [K^30(PEG2)]hPP2‐36 or saline and subsequently observed the activity of the mice for 24 h in a novel cage (Supporting Information Figure S4).

[1] = tested on: orexin neurons in the lateral hypothalamus; test: c-Fos/orexin dual-labelling immunohistochemistry in lateral hypothalamus after fear extinction, WT mice; format: in vivo, mouse; details: i.p. 60 min before fear extinction, fasted 16 h, brains removed 90 min after testing, n = 7 per group
Description: A separate group of WT and Y4KO mice were fasted overnight (16 h), injected i.p. with [K^30(PEG2)]hPP2‐36 or saline and subjected to extinction training 60 min later. Using a cryostat 40 μm coronal, free‐floating sections were cut for subsequent immunohistochemistry.
Immunohistochemical analysis was performed on free‐floating, PFA‐fixed, 40 μm thick coronal sections using indirect peroxidase labelling, as described previously (Tasan et al., 2011). The following antisera were used: polyclonal rabbit anti‐c‐Fos (1:20 000 PC38, Calbiochem) and polyclonal rabbit anti‐pan‐orexin (1:1000, Abcam ab6214, Lot:GR63996‐1). In brief, coronal sections were incubated free‐floating in 10% normal goat serum (Biomedica, Vienna, Austria) in Tris–HCl buffered saline (TBS; 50 mM, pH 7.2) for 90 min, followed by incubation with primary antiserum. […]
The number of c‐Fos positive cells was obtained bilaterally from six matched sections per animal showing the lateral hypothalamus, at a magnification of 400×, in multiple separate fields and mean values were calculated for each mouse. Results are presented as number of immunoreactivity positive cells per section and expressed as mean ± SEM. […]

WT mice = test: Fear acquisition and consolidation after peripheral injection; format: in vivo, mouse; details: vs saline, n = 6 per group
Description: as §3, §4
as §5, with “Spontaneous recovery (day 12) and renewal (day 13) were tested by exposing the mice to five CS+ in contexts B and A respectively.” left out

[2] = i.p. immediately after fear acquisition

[K^30(PEG2)]hPP2‐36 (H-PLEPVYPGDNATPEQMAQYAADLRRYINK(MeO‑PEG 2 kDa)LTRPRY-NH2) [lysine 30 carries 2000 Da MeO-PEG]
hY5 pEC50 (hY5): 6.4 ± 0.1
hY4 pEC50 (hY4): 8.0 ± 0.2
EC50 (hY2): > 1000 nM
EC50 (hY1): > 1000 nM

[K^30(PEG2)]hPP2‐36
cued fear extinction learning (freezing to CS) (WT (C57Bl/6NCrl) mice; 1 mg/kg i.p. 60 min before extinction training, fasted 16 h, male WT mice, vs saline): significantly facilitated extinction learning
freezing at CS13 during extinction (WT (C57Bl/6NCrl) mice; 1 mg/kg i.p. 60 min before extinction, fasted 16 h, WT mice, n = 10 per group): reduced freezing at CS13
freezing during extinction recall (WT (C57Bl/6NCrl) mice; 1 mg/kg i.p. before extinction 1, fasted 16 h, recall 24 h later drug-free and non-fasting, male WT mice, vs saline): reduction of freezing during extinction recall
freezing during spontaneous recovery (WT (C57Bl/6NCrl) mice; 1 mg/kg i.p. before extinction training 1 (day 2), fasted 16 h, tested day 12, context B, male WT mice, n = 7 per group): reduced freezing
freezing during renewal (WT (C57Bl/6NCrl) mice; 1 mg/kg i.p. before extinction training 1 (day 2), fasted 16 h, tested day 13, context A, male WT mice, n = 7 per group): reduced freezing
cued fear extinction learning, non-fasted (WT (C57Bl/6NCrl) mice; i.p. 60 min before extinction training, non‐fasted WT mice, vs saline, n = 6 per group): did not facilitate extinction learning
cued fear extinction (freezing to CS) (Y4KO mice): did not respond
general motor activity (male WT mice): did not influence general motor activity
percentage of cFos-positive orexin neurons in the lateral hypothalamus [1]: specifically reduced
context fear after injection before fear acquisition (WT mice; i.p. 60 min before fear acquisition, 16 h fasting, tested 24 h later): did not alter
CS-induced fear after injection before fear acquisition (WT mice; i.p. 60 min before fear acquisition, 16 h fasting, tested 48 h later): did not alter
CS-induced freezing after injection immediately after fear acquisition (consolidation) (WT mice; [2]): did also not change
context fear after injection immediately after fear acquisition (consolidation) (WT mice; [2]): did also not change
